This is an account of results in patent publication US20120035247A1, “RNA Interference Mediated Inhibition of Signal Transducer and Activator of Transcription 6 (STAT6) Gene Expression Using Short Interfering Nucleic Acid (siNA)” (Merck Sharp & Dohme Corp., priority 2009, published 2012).

[invAb] = inverted abasic unit; m = 2'-O-methyl; r = 2'-OH (RNA); f = 2'-fluoro

Series [1] concerns STAT6 mRNA. Kind of series: STAT6 siNA screen in mouse NIH 3T3 cells, STAT6 mRNA by quantitative RT-PCR (Taqman). The series is classed as cell-based. The note with it: mouse NIH3T3 cells, 10 nM siNA, 24 hrs, normalized to GAPDH and non-targeting control, n = 2. On the procedure:
NIH 3T3 (mouse; ATCC cat# CRL-1658): Cells were cultured at 37° C. in the presence of 5% CO2 and grown in Dulbecco's modified Eagle's medium (DMEM) with 4 mM L-glutamine adjusted to contain 1.5 g/L sodium bicarbonate and 4.5 g/L glucose and supplemented with fetal bovine serum at a final concentration of 10%, 100 μg/mL of streptomycin, and 100 U/mL penicillin.
(§1) Cells were plated in all wells of a tissue-culture treated, 96-well plate at a final count of 5000 cells/well in […], of the appropriate culture media. The cells were cultured for 24 hours after plating at 37° C. in the presence of 5% CO2.
(§2) After 24 hours, complexes containing siNA and RNAiMax were created as follows: A solution of RNAiMax diluted 33-fold in OPTI-MEM was prepared. In parallel, solutions of the siNAs for testing were prepared to a final concentration of 120 nM in OPTI-MEM. After incubation of RNAiMax/OPTI-MEM solution at room temperature for 5 min, an equal volume of the siNA solution and the RNAiMax solution were added together for each of the siNAs.
(§3) This solution was incubated at room temperature for 20 minutes. After incubation, 20 uL of the solution was added to each of the relevant wells. The final concentration of siNA in each well was 10 nM and the final volume of RNAiMax in each well was 0.3u1.
(§4) The time of incubation with the RNAiMax-siNA complexes was 24 hours and there was no change in media between transfection and harvesting, unless otherwise indicated.
(§5) RNA was extracted from a 96-well plate using the TaqMan® Gene Expression Cells-to-CT™ Kit (Cat#4399002) with a modified protocol. Briefly, a 60 uL (1 plate) or 110 uL (2 plates) of the Lysis Solution with DNase I was dispensed into each well of the Lysis Buffer Plate (twin.tec full skirt plate). The lysis buffer and stop plates were stored at 4° C. until the cells were washed.
(§6) The plate was spun at 1100 rpm for 5 minutes. The culture medium was aspirated and discarded from the wells of the culture plate. The lysis was performed automatically using a BioMek FX instrument and method. After the Biomek method was completed, the lysis plate was incubated for 2 min. at room temperature. The lysis plate can be stored for 2 hours at 4° C., or at −20° C. or −80° C. for two months.
(§7) Each well of the reverse transcription plate required 10 uL of 2× reverse transcriptase Buffer, luL of 20× reverse transcription enzyme and 2 uL of nuclease-free water. The reverse transcription master mix was prepared by mixing 2× reverse transcription buffer, 20× reverse transcription enzyme mix, and nuclease-free water. 13 uL of the reverse transcription master mix was dispensed into each well of the reverse transcription plate (semi-skirted). A separate reverse transcription plate was prepared for each cell plate. The plate was loaded onto a Biomek NX or Biomek FX Dual-96 and the Biomek method was run. The program is programmed to automatically added 7 uL of lysate from the cell lysis procedure described above into each well of the reverse transcription plate. The plate is sealed and spun on a centrifuge (1000 rpm for 30 seconds) to settle the contents to the bottom of the reverse transcription plate. The plate is placed in a thermocycler at 37° C. for 60 min, 95° C. for 5 min, and 4° C. until the plate is removed from the thermocycler. Upon removal, if not used immediately, the plate was frozen at −20° C.
(§8) A series of probes and primers were used to detect the various mRNA transcripts of the genes of 13-Actin (human cell line only), and of STATE and GAPDH in mouse and human cell lines. All Taqman probes and primers for the experiments here-in described were supplied as pre-validated sets by Applied Biosystems, Inc. (see Table 2).
The assays were performed on an ABI 7900 instrument, according to the manufacturer's instructions. A TaqMan Gene Expression Master Mix (provided in the Cells-to-CTT™, Applied Biosystems, Cat #4399002) was used. […]

Series [2] concerns STAT6 mRNA. Put plainly: STAT6 siNA screen and dose response in human A549 cells, STAT6 mRNA by quantitative RT-PCR (Taqman). The series is classed as cell-based. Particulars: human A549 cells, 10 nM siNA, 24 hrs, normalized to GAPDH and non-targeting control, mean ± S.D., n = 3. As for the experimental part:
A549 (human; ATCC cat# CCL-185): Cells were cultured at 37° C. in the presence of 5% CO2 and grown in Ham's F12K medium with 2 mM L-glutamine adjusted to contain 1.5 g/L sodium bicarbonate and supplemented with fetal bovine serum at a final concentration of 10%, 100 μg/mL of streptomycin, and 100 U/mL penicillin.
as §1, §2, §3, §4, §5, §6, §7, §8
The assays were performed on an ABI 7900 instrument, according to the manufacturer's instructions. A TaqMan Gene Expression Master Mix (provided in the Cells-to-CTT™, Applied Biosystems, Cat #4399002) was used. The PCR reactions were carried out at 50° C. for 2 min, 95° C. for 20 min followed by 40 cycles at 95° C. for 15 secs and 60° C. for 1 min. […]

Regarding “30012-DC: STAT6 siNA duplex; sense SEQ ID NO: 88, antisense SEQ ID NO: 89; target CAUCGUGCAUGGUAACCAA, site 1521 (sense CAUCGUGCAUGGUAACCAATT; antisense UUGGUUACCAUGCACGAUGUU; sense: DNA at AGT, 2'-fluoro at CU, [invAb] at 5' end, 3' end, backbone not given here; antisense: sugars from the 5' end rrrmffmffmfmfmfmmfmmm, backbone not given here) [STAT6 siNA duplex; target CAUCGUGCAUGGUAACCAA, site 1521]”, the “% KD STAT6” value with STAT6 mRNA [1] is reported as 18 ± 3.2%; in the series on STAT6 mRNA [2] it was −13.7 ± 15.8%.

In the case of “30013-DC: STAT6 siNA duplex; sense SEQ ID NO: 90, antisense SEQ ID NO: 91; target CAUGGUGCCACCUUAUGAU, site 2280 (sense CAUGGUGCCACCUUAUGAUTT; antisense AUCAUAAGGUGGCACCAUGUU; sense: DNA at AGT, 2'-fluoro at CU, [invAb] at 5' end, 3' end, backbone not given here; antisense: sugars from the 5' end rrrmfmmmmfmmfmffmfmmm, backbone not given here) [STAT6 siNA duplex; target CAUGGUGCCACCUUAUGAU, site 2280]”, the results for the “% KD STAT6” value in the series on STAT6 mRNA [1] and in the series with STAT6 mRNA [2] were 46.1 ± 2.2% and 19.6 ± 13.6%, respectively.

With “30014-DC: STAT6 siNA duplex; sense SEQ ID NO: 92, antisense SEQ ID NO: 93; target GGCCUUUCAGCACCGCUGU, site 1755 (sense GGCCUUUCAGCACCGCUGUTT; antisense ACAGCGGUGCUGAAAGGCCUU; sense: DNA at AGT, 2'-fluoro at CU, [invAb] at 5' end, 3' end, backbone not given here; antisense: sugars from the 5' end rrrmfmmfmffmmmmmmffmm, backbone not given here) [STAT6 siNA duplex; target GGCCUUU…UGU, site 1755]”, the “% KD STAT6” value with STAT6 mRNA [1] is recorded as 30.6 ± 2.8%; with STAT6 mRNA [2], −0.4 ± 17.4%.

With “30015-DC: STAT6 siNA duplex; sense SEQ ID NO: 94, antisense SEQ ID NO: 95; target CUCAGAUGUGACUAUGGUA, site 2544 (sense CUCAGAUGUGACUAUGGUATT; antisense UACCAUAGUCACAUCUGAGUU; sense: DNA at AGT, 2'-fluoro at CU, [invAb] at 5' end, 3' end, backbone not given here; antisense: sugars from the 5' end rrrfmfmmffmfmfffmmmmm, backbone not given here) [STAT6 siNA duplex; target CUCAGAUGUGACUAUGGUA, site 2544]”, the “% KD STAT6” value with STAT6 mRNA [1] was 81.6 ± 3.7%; in the series with STAT6 mRNA [2], 65.5 ± 7.6%.

With “30016-DC: STAT6 siNA duplex; sense SEQ ID NO: 96, antisense SEQ ID NO: 97; target GCCAGAUAACCAUGCCCUU, site 2447 (sense GCCAGAUAACCAUGCCCUUTT; antisense AAGGGCAUGGUUAUCUGGCUU; sense: DNA at AGT, 2'-fluoro at CU, [invAb] at 5' end, 3' end, backbone not given here; antisense: sugars from the 5' end rrrmmfmfmmffmfffmmfmm, backbone not given here) [STAT6 siNA duplex; target GCCAGAUAACCAUGCCCUU, site 2447]”, the “% KD STAT6” value with STAT6 mRNA [1] is recorded as 61.8 ± 2.3%; in the series on STAT6 mRNA [2], −20 ± 8.9%.

Regarding “30017-DC: STAT6 siNA duplex; sense SEQ ID NO: 98, antisense SEQ ID NO: 99; target GAUGCUUUCUGUUACAACA, site 421 (sense GAUGCUUUCUGUUACAACATT; antisense UGUUGUAACAGAAAGCAUCUU; sense: DNA at AGT, 2'-fluoro at CU, [invAb] at 5' end, 3' end, backbone not given here; antisense: sugars from the 5' end rrrfmfmmfmmmmmmfmffmm, backbone not given here) [STAT6 siNA duplex; target GAUGCUUUCUGUUACAACA, site 421]”, the “% KD STAT6” value in the series on STAT6 mRNA [1] is reported as 85.1 ± 2%; with STAT6 mRNA [2], −14.9 ± 9.1%.

Consider “30018-DC: STAT6 siNA duplex; sense SEQ ID NO: 100, antisense SEQ ID NO: 101; target CAGAAGAUCUUCAACGACA, site 1720 (sense CAGAAGAUCUUCAACGACATT; antisense UGUCGUUGAAGAUCUUCUGUU; sense: DNA at AGT, 2'-fluoro at CU, [invAb] at 5' end, 3' end, backbone not given here; antisense: sugars from the 5' end rrrfmffmmmmmffffffmmm, backbone not given here) [STAT6 siNA duplex; target CAGAAGAUCUUCAACGACA, site 1720]”, for which the “% KD STAT6” value in the series with STAT6 mRNA [1] was 64.8 ± 0.7%; with STAT6 mRNA [2], 66.8 ± 3.2%.

“30019-DC: STAT6 siNA duplex; sense SEQ ID NO: 102, antisense SEQ ID NO: 103; target GAAACAGCAUCUUGCCGCA, site 506 (sense GAAACAGCAUCUUGCCGCATT; antisense UGCGGCAAGAUGCUGUUUCUU; sense: DNA at AGT, 2'-fluoro at CU, [invAb] at 5' end, 3' end, backbone not given here; antisense: sugars from the 5' end rrrmmfmmmmfmffmffffmm, backbone not given here) [STAT6 siNA duplex; target …UCUUGCCGCA, site 506]”: the “% KD STAT6” value in the series with STAT6 mRNA [1] is 59.6 ± 7.3%; in the series on STAT6 mRNA [2], −9.5 ± 20.6%.

For the substance “30020-DC: STAT6 siNA duplex; sense SEQ ID NO: 104, antisense SEQ ID NO: 105; target CUAGCCUUCUCCUCAAUGA, site 1928 (sense CUAGCCUUCUCCUCAAUGATT; antisense UCAUUGAGGAGAAGGCUAGUU; sense: DNA at AGT, 2'-fluoro at CU, [invAb] at 5' end, 3' end, backbone not given here; antisense: sugars from the 5' end r3 f2 m10 f2 m4, backbone not given here) [STAT6 siNA duplex; target CUAGCCUUCUCCUCAAUGA, site 1928]”, the “% KD STAT6” value in the series on STAT6 mRNA [1] was found to be 64.2 ± 7.9%; with STAT6 mRNA [2], 58.8 ± 13.6%.
